Assay results published in patent US20190307776A1, “AZA-S[…] HUMAN IMMUNODEFICIENCY VIRUS REPLICATION” (priority 2016, published 2019).

System: recombinant NL4-3 virus
Assay: HIV cell culture assay
Format: cell-based
Settings: Human immunodeficiency virus 1, NL43, MT2
Experimental: HIV cell culture assay—MT-2 cells and 293T cells were obtained from the NIH AIDS Research and Reference Reagent Program. MT-2 cells were propagated in RPMI 1640 media supplemented with 10% heat inactivated fetal bovine serum, 100 […]. The 293T cells were propagated in DMEM media supplemented with 10% heat inactivated fetal bovine serum (FBS), 100 units/ml penicillin G and 100 μg/ml streptomycin. The proviral DNA clone of NL4-3 was obtained from the NIH AIDS Research and Reference Reagent Program. A recombinant NL4-3 virus, in which a section of the nef gene from NL4-3 was replaced with the Renilla luciferase gene, was used as a reference virus. In addition, residue Gag P373 was converted to P373S. Briefly, the recombinant virus was prepared by transfection of the altered proviral clone of NL4-3. Transfections were performed in 293T cells using LipofectAMINE PLUS from Invitrogen (Carlsbad, Calif.), according to manufacturer's instruction. The virus was titered in MT-2 cells using luciferase enzyme activity as a marker. Luciferase was quantitated using the Dual Luciferase kit from Promega (Madison, Wis.), with modifications to the manufacturer's protocol. The diluted Passive Lysis solution was pre-mixed with the re-suspended Luciferase Assay Reagent and the re-suspended Stop & Glo Substrate (2:1:1 ratio). Fifty (50) μL of the mixture was added to each aspirated well on assay plates and luciferase activity was measured immediately on a Wallac TriLux (Perkin-Elmer). Antiviral activities of inhibitors toward the recombinant virus were quantified by measuring luciferase activity in cells infected for 4-5 days with NLRluc recombinants in the presence serial dilutions of the inhibitor.

Row | SMILES | EC50
1 | C=C(C)[C@@H]1CC[C@]2(CO)CC[C@]3(C)[C@H](CC[C@@H]4[C@@]5(C)CCCN(S(=O)(=O)c6ccc(C(=O)O)o6)C(C)(C)C5CC[C@]43C)[C@@H]12 (stereo partly drawn) [Example 11, 5-(((7aR,7bR,9aS,12R,12aR,12bR,14aR,14bR)-9a-(hydroxymethyl)-5,5,7a,7b,14b-pentamethyl-12-(prop-1-en-2-yl)icosahydrocyclopenta[7,8]phenanthro[2,1-c]azepin-4(1H)-yl)sulfonyl)furan-2-carboxylic acid] | > 8000 nM
2 | C=C(C)[C@@H]1CC[C@]2(CNCCCN3CCS(=O)(=O)CC3)CC[C@]3(C)[C@H](CC[C@@H]4[C@@]5(C)CCN(C(=O)C(=O)NC(C)(C)C(=O)O)C(C)(C)[C@@H]5CC[C@]43C)[C@@H]12 [Example 38, 2-(2-((4aR,6aR,6bR,8aS,11R,11aR,11bR,13aR,13bR)-8a-(((3-(1,1-dioxidothiomorpholino)propyl)amino)methyl)-4,4,6a,6b,13b-pentamethyl-11-(prop-1-en-2-yl)hexadecahydro-1H-cyclopenta[5,6]naphtho[2,1-f]isoquinolin-3(2H,4H,13bH)-yl)-2-oxoacetamido)-2-methylpropanoic acid] | > 3000 nM
3 | C=C(C)[C@@H]1CC[C@]2(CO)CC[C@]3(C)[C@H](CC[C@@H]4[C@@]5(C)CCN(C(=O)c6ccc(C(=O)O)cc6)C(C)(C)C5CC[C@]43C)[C@@H]12 (stereo partly drawn) [Example 10, 4-((6aR,6bR,8aS,11R,11aR,11bR,13aR,13bR)-8a-(hydroxymethyl)-4,4,6a,6b,13b-pentamethyl-11-(prop-1-en-2-yl)icosahydro-1H-cyclopenta[5,6]naphtho[2,1-f]isoquinoline-3-carbonyl)benzoic acid] | 320 nM
4 | C=C(C)[C@@H]1CC[C@]2(CNCCCN3CCS(=O)(=O)CC3)CC[C@]3(C)[C@H](CC[C@@H]4[C@@]5(C)CCN(C(=O)C(=O)NC6(C(=O)O)CC6)C(C)(C)[C@@H]5CC[C@]43C)[C@@H]12 [Example 39, 1-(2-((4aR,6aR,6bR,8aS,11R,11aR,11bR,13aR,13bR)-8a-(((3-(1,1-dioxidothiomorpholino)propyl)amino)methyl)-4,4,6a,6b,13b-pentamethyl-11-(prop-1-en-2-yl)hexadecahydro-1H-cyclopenta[5,6]naphtho[2,1-f]isoquinolin-3(2H,4H,13bH)-yl)-2-oxoacetamido)cyclopropanecarboxylic acid] | > 3000 nM
5 | C=C(C)[C@@H]1CC[C@]2(CO)CC[C@]3(C)[C@H](CC[C@@H]4[C@@]5(C)CCN(C(=O)CCCC(=O)O)C(C)(C)C5CC[C@]43C)[C@@H]12 (stereo partly drawn) [Example 8, 5-((6aR,6bR,8aS,11R,11aR,11bR,13aR,13bR)-8a-(hydroxymethyl)-4,4,6a,6b,13b-pentamethyl-11-(prop-1-en-2-yl)icosahydro-3H-cyclopenta[5,6]naphtho[2,1-f]isoquinolin-3-yl)-5-oxopentanoic acid] | 1810 nM
6 | C=C(C)[C@@H]1CC[C@]2(CNCCCN3CCS(=O)(=O)CC3)CC[C@]3(C)[C@H](CC[C@@H]4[C@@]5(C)CCN(C(=O)CC6(CC(=O)O)CCCC6)C(C)(C)[C@@H]5CC[C@]43C)[C@@H]12 [Example 26, 2-(1-(2-((4aR,6aR,6bR,8aS,11R,11aR,11bR,13aR,13bR)-8a-(((3-(1,1-dioxidothiomorpholino)propyl)amino)methyl)-4,4,6a,6b,13b-pentamethyl-11-(prop-1-en-2-yl)hexadecahydro-1H-cyclopenta[5,6]naphtho[2,1-f]isoquinolin-3(2H,4H,13bH)-yl)-2-oxoethyl)cyclopentyl)acetic acid] | 130 nM
7 | C=C(C)[C@@H]1CC[C@]2(CNCCCN3CCS(=O)(=O)CC3)CC[C@]3(C)[C@H](CC[C@@H]4[C@@]5(C)CCN(c6ccc([N+](=O)[O-])cc6)C(C)(C)[C@@H]5CC[C@]43C)[C@@H]12 [Example 46, 4-(3-((((4aR,6aR,6bR,8aS,11R,11aR,11bR,13aR,13bR)-4,4,6a,6b,13b-pentamethyl-3-(4-nitrophenyl)-11-(prop-1-en-2-yl)icosahydro-1H-cyclopenta[5,6]naphtho[2,1-f]isoquinolin-8a-yl)methyl)amino)propyl)thiomorpholine 1,1-dioxide] | > 330 nM
8 | C=C(C)[C@@H]1CC[C@]2(CO)CC[C@]3(C)[C@H](CC[C@@H]4[C@@]5(C)CCN(C(=O)CCC(=O)O)C(C)(C)C5CC[C@]43C)[C@@H]12 (stereo partly drawn) [Example 9, 4-((6aR,6bR,8aS,11R,11aR,11bR,13aR,13bR)-8a-(hydroxymethyl)-4,4,6a,6b,13b-pentamethyl-11-(prop-1-en-2-yl)icosahydro-3H-cyclopenta[5,6]naphtho[2,1-f]isoquinolin-3-yl)-4-oxobutanoic acid] | 2760 nM
9 | C=C(C)[C@@H]1CC[C@]2(CO)CC[C@]3(C)[C@H](CC[C@@H]4[C@@]5(C)CCCN(C(=O)CCCCC(=O)O)C(C)(C)C5CC[C@]43C)[C@@H]12 (stereo partly drawn) [Example 4, 6-((7aR,7bR,9aS,12R,12aR,12bR,14aR,14bR)-9a-(hydroxymethyl)-5,5,7a,7b,14b-pentamethyl-12-(prop-1-en-2-yl)icosahydrocyclopenta[7,8]phenanthro[2,1-c]azepin-4(1H)-yl)-6-oxohexanoic acid] | > 8000 nM
10 | C=C(C)[C@@H]1CC[C@]2(CO)CC[C@]3(C)[C@H](CC[C@@H]4[C@@]5(C)CCN(S(=O)(=O)c6ccc(/C=C/C(=O)O)cc6)C(C)(C)C5CC[C@]43C)[C@@H]12 (stereo partly drawn) [Example 18, (E)-3-(4-(((6aR,6bR,8aS,11R,11aR,11bR,13aR,13bR)-8a-(hydroxymethyl)-4,4,6a,6b,13b-pentamethyl-11-(prop-1-en-2-yl)icosahydro-3H-cyclopenta[5,6]naphtho[2,1-f]isoquinolin-3-yl)sulfonyl)phenyl)acrylic acid] | 4200 nM
11 | C=C(C)[C@@H]1CC[C@]2(C(=O)O)CC[C@]3(C)[C@H](CC[C@@H]4[C@@]5(C)CCN(c6ncc(C(=O)O)cn6)C(C)(C)[C@@H]5CC[C@]43C)[C@@H]12 [Example 52, (4aR,6aR,6bR,8aS,11R,11aR,11bR,13aR,13bR)-3-(5-carboxypyrimidin-2-yl)-4,4,6a,6b,13b-pentamethyl-11-(prop-1-en-2-yl)icosahydro-1H-cyclopenta[5,6]naphtho[2,1-f]isoquinoline-8a-carboxylic acid] | 62 nM
12 | C=C(C)[C@@H]1CC[C@]2(CNCCCN3CCS(=O)(=O)CC3)CC[C@]3(C)[C@H](CC[C@@H]4[C@@]5(C)CCN(C(=O)/C=C/C(=O)O)C(C)(C)[C@@H]5CC[C@]43C)[C@@H]12 [Example 32, (E)-4-((4aR,6aR,6bR,8aS,11R,11aR,11bR,13aR,13bR)-8a-(((3-(1,1-dioxidothiomorpholino)propyl)amino)methyl)-4,4,6a,6b,13b-pentamethyl-11-(prop-1-en-2-yl)hexadecahydro-1H-cyclopenta[5,6]naphtho[2,1-f]isoquinolin-3(2H,4H,13bH)-yl)-4-oxobut-2-enoic acid] | 300 nM
